Measured values reported in PubChem BioAssay (NCI).
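1) Cells in 96-well plates. 2) Compound, 48 h, 5 concentrations. 3) Linear interpolation between surrounding doses. 4) Unreached endpoint = highest concentration. TGI: total growth inhibition.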

Assays:
Test in all cases: NCI tumour cell line growth inhibition, 48 h
[1] = system: HT29 colon
[2] = system: OVCAR-8 ovarian
[3] = system: LXFL 529 NSCLC
[4] = system: IGROV1 ovarian
[5] = system: HL-60(TB) leukemia
[6] = system: NCI-H23 lung
[7] = system: TK-10 renal
[8] = system: U251 CNS
[9] = system: MALME-3M melanoma
[10] = system: OVCAR-5 ovarian
[11] = system: DMS 114 small cell lung
[12] = system: SF-268 CNS
[13] = system: SNB-75 CNS
[14] = system: HCT-116 colon
[15] = system: OVCAR-4 ovarian
[16] = system: HOP-18 NSCLC
[17] = system: OVCAR-3 ovarian
[18] = system: A549 NSCLC
[19] = system: KM12 colon
[20] = system: SK-MEL-2 melanoma
[21] = system: SF-539 CNS
[22] = system: SK-OV-3 ovarian
[23] = system: NCI-H522 lung
[24] = system: HCT-15 colon
[25] = system: SN12C renal
[26] = system: MOLT-4 leukemia
[27] = system: DMS 273 small cell lung
[28] = system: SNB-19 CNS
[29] = system: XF 498 CNS
[30] = system: CCRF-CEM leukemia
[31] = system: M14 melanoma
[32] = system: K-562 leukemia
[33] = system: RXF-631 renal
[34] = system: UACC-257 melanoma
[35] = system: UACC-62 melanoma
[36] = system: HOP-92 NSCLC
[37] = system: HCC-2998 colon
[38] = system: SK-MEL-5 melanoma
[39] = system: SNB-78 CNS
[40] = system: SR leukemia
[41] = system: COLO 205 colon
[42] = system: M19-MEL melanoma
[43] = system: HOP-62 NSCLC
[44] = system: EKVX NSCLC
[45] = system: KM20L2 colon
[46] = system: SW-620 colon
[47] = system: A498 renal
[48] = system: RPMI-8226 leukemia
[49] = system: NCI-H226 lung
[50] = system: SF-295 CNS
[51] = system: NCI-H460 lung
[52] = system: 786-0 renal
[53] = system: ACHN renal
[54] = system: UO-31 renal
[55] = system: CAKI-1 renal
[56] = system: RXF 393 renal
[57] = system: DLD-1 colon
[58] = system: DU-145 prostate
[59] = system: T-47D breast
[60] = system: MCF7 breast
[61] = system: NCI/ADR-RES ovarian
[62] = system: P388/ADR leukemia
[63] = system: PC-3 prostate
[64] = system: MDA-N
[65] = system: P388 leukemia
[66] = system: LOX IMVI melanoma
[67] = system: SN12K1 renal
[68] = system: SK-MEL-28 melanoma
[69] = system: MDA-MB-435
[70] = system: HS 578T breast
[71] = system: MDA-MB-231 breast
[72] = system: BT-549 breast

SMILES: Cc1ccccc1C(=O)c1cc(O)ccc1O
- TGI [1]: > 100 µM
- TGI [2]: > 100 µM
- TGI [3]: > 100 µM
- TGI [4]: > 100 µM
- TGI [5]: > 100 µM
- TGI [6]: > 100 µM
- TGI [7]: > 100 µM
- TGI [8]: > 100 µM
- TGI [9]: > 100 µM
- TGI [10]: > 100 µM
- TGI [11]: > 100 µM
- TGI [12]: > 100 µM
- TGI [13]: > 100 µM
- TGI [14]: > 100 µM
- TGI [15]: > 100 µM
- TGI [16]: > 100 µM
- TGI [17]: > 100 µM
- TGI [18]: > 100 µM
- TGI [19]: > 100 µM
- TGI [20]: > 100 µM
- TGI [21]: > 100 µM
- TGI [22]: > 100 µM
- TGI [23]: 99.1 µM
- TGI [24]: > 100 µM
- TGI [25]: > 100 µM
- TGI [26]: > 100 µM
- TGI [27]: > 100 µM
- TGI [28]: > 100 µM
- TGI [29]: > 100 µM
- TGI [30]: > 100 µM
- TGI [31]: > 100 µM
- TGI [32]: > 100 µM
- TGI [33]: > 100 µM
- TGI [34]: > 100 µM
- TGI [35]: > 100 µM
- TGI [36]: > 100 µM
- TGI [37]: > 100 µM
- TGI [38]: > 100 µM
- TGI [39]: > 100 µM
- TGI [40]: > 100 µM
- TGI [41]: > 100 µM
- TGI [42]: > 100 µM
- TGI [43]: > 100 µM
- TGI [44]: > 100 µM
- TGI [45]: > 100 µM
- TGI [46]: > 100 µM
- TGI [47]: > 100 µM
- TGI [48]: > 100 µM
- TGI [49]: > 100 µM
- TGI [50]: > 100 µM
- TGI [51]: > 100 µM
- TGI [52]: > 100 µM
- TGI [53]: > 100 µM
- TGI [54]: > 100 µM
- TGI [55]: > 100 µM
- TGI [56]: > 100 µM
- TGI [57]: > 100 µM

SMILES: Cc1c2cc[n+](C)c(C)c2cc2c1[nH]c1ccccc12
- TGI [1]: 83.8 µM
- TGI [2]: > 93.4 µM
- TGI [4]: > 100 µM
- TGI [5]: 82.1 µM
- TGI [6]: 16.3 µM
- TGI [7]: > 100 µM
- TGI [8]: 8.41 µM
- TGI [9]: 14.2 µM
- TGI [10]: 82.6 µM
- TGI [11]: 10.4 µM
- TGI [12]: 5.6 µM
- TGI [58]: > 78 µM
- TGI [13]: 6.98 µM
- TGI [14]: > 86.1 µM
- TGI [59]: 10.4 µM
- TGI [15]: 43.3 µM
- TGI [16]: 11.8 µM
- TGI [17]: 57.7 µM
- TGI [60]: 70.1 µM
- TGI [61]: > 93.4 µM
- TGI [18]: 68.7 µM
- TGI [19]: 21.1 µM
- TGI [62]: > 100 µM
- TGI [20]: 30.5 µM
- TGI [21]: 46.2 µM
- TGI [22]: 89.2 µM
- TGI [23]: 18.2 µM
- TGI [63]: > 100 µM
- TGI [24]: > 100 µM
- TGI [25]: 8.54 µM
- TGI [26]: 75.2 µM
- TGI [27]: 39.1 µM
- TGI [64]: > 93.8 µM
- TGI [65]: 86.6 µM
- TGI [28]: 7.22 µM
- TGI [66]: > 92.2 µM
- TGI [67]: 16.8 µM
- TGI [30]: 75.3 µM
- TGI [31]: > 100 µM
- TGI [68]: 26.4 µM
- TGI [32]: 61.3 µM
- TGI [69]: > 75.2 µM
- TGI [34]: 65.8 µM
- TGI [35]: 48.8 µM
- TGI [36]: 50.8 µM
- TGI [37]: 32.2 µM
- TGI [70]: 7.54 µM
- TGI [38]: 11 µM
- TGI [39]: 72.2 µM
- TGI [40]: > 100 µM
- TGI [41]: 5.54 µM
- TGI [42]: 11.9 µM
- TGI [43]: 37.5 µM
- TGI [44]: 42.7 µM
- TGI [45]: 44.5 µM
- TGI [46]: > 95.1 µM
- TGI [47]: > 100 µM
- TGI [48]: 73.5 µM
- TGI [49]: 10.8 µM
- TGI [71]: > 36.3 µM
- TGI [50]: 32.3 µM
- TGI [51]: 26.5 µM
- TGI [52]: > 39.5 µM
- TGI [53]: > 100 µM
- TGI [54]: > 100 µM
- TGI [72]: 18.9 µM
- TGI [55]: > 91.9 µM
- TGI [56]: > 100 µM
- TGI [57]: > 100 µM
